Results published in article PMC11055700 (Chemicke Zvesti, 2024).
pIC50: −log10 of the molar value. Read-outs that look alike come from different tables or passages of the source.

Key:
[1] = target: T1, SARS-CoV-2 Spike-RBD (delta) / ACE2 (Homo sapiens, UniProt Q9BYF1); experiment: biochemical; type: binding
T1 construct: a SARS-CoV-2 RBD protein containing a C-terminal His tag; a full-length ACE2 peptide with a C-terminal Fc tag; purchased Sino Biological

[2] = target: T2, SARS-CoV-2 Spike-RBD (omicron) / ACE2 (Homo sapiens, UniProt Q9BYF1); experiment: biochemical; type: binding
T2 construct: a SARS-CoV-2 RBD protein containing a C-terminal His tag; a full-length ACE2 peptide with a C-terminal Fc tag; purchased Sino Biological

[3] = target: T3, SARS-CoV-2 Spike-RBD (beta) / ACE2 (Homo sapiens, UniProt Q9BYF1); experiment: biochemical; type: binding
T3 construct: a SARS-CoV-2 RBD protein containing a C-terminal His tag; a full-length ACE2 peptide with a C-terminal Fc tag; purchased Sino Biological

[4] = target: T4, SARS-CoV-2 Spike-RBD (lambda) / ACE2 (Homo sapiens, UniProt Q9BYF1); experiment: biochemical; type: binding
T4 construct: a SARS-CoV-2 RBD protein containing a C-terminal His tag; a full-length ACE2 peptide with a C-terminal Fc tag; purchased Sino Biological

[5] = target: T5, SARS-CoV-2 Spike-RBD (ancestral, WT) / ACE2 (Homo sapiens, UniProt Q9BYF1); experiment: biochemical; type: binding; settings: IC50 Spike/ACE2
T5 construct: a SARS-CoV-2 RBD protein containing a C-terminal His tag; a full-length ACE2 peptide with a C-terminal Fc tag; purchased Sino Biological

[6] = target: T6, human PD-1 / human PD-L1 (Homo sapiens, UniProt Q15116+Q9NZQ7); experiment: AlphaScreen PD-1-PD-L1 binding assay; settings: unrelated ligand-receptor pair
T6 construct: purchased Sino Biological
T6 sequence (Q15116 25-167 limits assumed): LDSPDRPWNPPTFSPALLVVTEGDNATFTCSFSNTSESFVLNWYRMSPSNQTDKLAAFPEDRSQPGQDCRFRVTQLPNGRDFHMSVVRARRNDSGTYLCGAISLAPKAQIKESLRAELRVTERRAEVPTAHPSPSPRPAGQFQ
T6 sequence (Q9NZQ7 19-239 limits assumed): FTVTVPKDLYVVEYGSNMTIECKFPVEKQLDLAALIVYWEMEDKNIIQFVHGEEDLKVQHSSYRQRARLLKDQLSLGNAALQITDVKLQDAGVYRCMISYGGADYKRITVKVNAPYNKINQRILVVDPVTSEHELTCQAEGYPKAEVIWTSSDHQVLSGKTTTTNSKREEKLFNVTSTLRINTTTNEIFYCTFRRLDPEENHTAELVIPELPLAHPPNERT

T3 sequence (Q9BYF1 18-740): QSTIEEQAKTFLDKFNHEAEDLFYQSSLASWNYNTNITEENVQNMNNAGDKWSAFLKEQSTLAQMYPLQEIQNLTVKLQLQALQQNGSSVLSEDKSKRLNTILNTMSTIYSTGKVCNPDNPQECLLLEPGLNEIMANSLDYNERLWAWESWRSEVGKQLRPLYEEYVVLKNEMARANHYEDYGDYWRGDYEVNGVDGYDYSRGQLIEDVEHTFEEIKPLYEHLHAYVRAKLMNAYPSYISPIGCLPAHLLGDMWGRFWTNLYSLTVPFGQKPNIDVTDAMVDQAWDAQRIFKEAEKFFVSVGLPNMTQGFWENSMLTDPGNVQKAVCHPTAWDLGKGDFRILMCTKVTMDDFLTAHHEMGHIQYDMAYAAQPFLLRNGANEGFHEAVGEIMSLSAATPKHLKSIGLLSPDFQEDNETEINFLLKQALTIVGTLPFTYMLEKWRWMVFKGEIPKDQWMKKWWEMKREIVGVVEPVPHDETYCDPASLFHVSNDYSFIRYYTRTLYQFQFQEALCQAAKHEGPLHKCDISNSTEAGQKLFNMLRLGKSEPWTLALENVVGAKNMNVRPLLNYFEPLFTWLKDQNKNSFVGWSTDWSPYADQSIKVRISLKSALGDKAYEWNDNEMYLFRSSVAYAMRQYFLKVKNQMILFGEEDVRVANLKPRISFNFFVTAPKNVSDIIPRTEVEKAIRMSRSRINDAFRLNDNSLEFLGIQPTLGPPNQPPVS
T4 sequence (Q9BYF1 18-740): as above
T1 sequence (Q9BYF1 18-740): as above
T2 sequence (Q9BYF1 18-740, change not shown): as the sequence (Q9BYF1 18-740) above
T5 sequence (Q9BYF1 18-740): as above

REGN10933
pIC50 ([1]; read-out: IC50 spike RBD/ACE2 binding, Delta RBD sequence): 8.85 | pIC50 ([2]; read-out: IC50 spike RBD/ACE2 binding, Omicron RBD sequence): < 6.15 | fold weaker against the beta RBD [3]: ~ 70 fold | pIC50 ([3]; read-out: IC50 spike RBD/ACE2 binding, Beta RBD sequence): 7.04 | pIC50 ([4]; read-out: IC50 spike RBD/ACE2 binding, Lambda RBD sequence): 9.10

O=C1Nc2ccc(Cl)cc2C1=NNc1ccc([N+](=O)[O-])cc1[N+](=O)[O-] [H2L, 5-chloro-3-(2-(2,4-dinitrophenyl)hydrazono)indolin-2-one]
melting point: > 350 °C | pIC50 [1]: 6.33 | pIC50 [2]: 6.21 | pIC50 [3]: 6.31 | pIC50 [5]: 6.59 | pIC50 [4]: 6.20 | pIC50 [6]: 5.69
